# Measured values: patent publication US20060003362A1, “ENT1 transporters expressed in cancer cells” (Xenoport, Inc., priority 2004, published 2006)
# Target: T1, ENT1 (Homo sapiens, UniProt Q99808)
# T1 construct: expressed in transfected cells; host or cells: Xenopus oocytes injected with ENT1 cRNA
# T1 sequence (Q99808 1-456): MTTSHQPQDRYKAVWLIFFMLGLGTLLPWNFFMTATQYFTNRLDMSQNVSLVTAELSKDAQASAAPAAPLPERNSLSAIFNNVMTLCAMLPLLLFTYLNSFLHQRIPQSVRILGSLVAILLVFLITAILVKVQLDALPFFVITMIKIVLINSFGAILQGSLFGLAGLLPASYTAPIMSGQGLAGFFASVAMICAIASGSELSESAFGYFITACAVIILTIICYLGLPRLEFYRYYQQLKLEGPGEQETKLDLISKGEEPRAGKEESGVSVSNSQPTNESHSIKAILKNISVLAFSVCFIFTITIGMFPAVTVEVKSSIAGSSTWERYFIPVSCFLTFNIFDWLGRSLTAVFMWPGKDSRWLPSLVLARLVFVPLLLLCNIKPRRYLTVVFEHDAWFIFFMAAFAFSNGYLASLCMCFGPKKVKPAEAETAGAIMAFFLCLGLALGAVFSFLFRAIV
# Experiment: Uptake of radiolabel into Xenopus oocytes expressing ENT1
# Format: cell-based
# Settings: Xenopus oocytes injected with ENT1 cRNA, 10 minutes, scintillation counting
# Method: To assess transport function of a specific transporter protein, it can be desirable to clone the cDNA and express the protein in cells that have low endogenous transport activity. Human ENT1 was cloned by PCR, fully sequenced, and subcloned into plasmids that can be used for expression in mammalian cells or Xenopus oocytes. […] For expression in Xenopus oocytes, in vitro ENT1 cRNA was prepared and injected into defoliculated oocytes.
# Oocytes expressing ENT1 or control oocytes not expressing ENT1 were incubated in an oocyte ringers (ND96) buffer (90 mM NaCl, 10 mM HemiNa HEPES, 2 mM KCl, 1 mM MgCl, 1.8 mM CaCl2) containing 0.5% bovine serum albumin and 3H urindine (10^6 CPM/ml) for 10 minutes. Oocytes were washed and uptake of radiolabel quantified by scintillation counting.
smiles,measurement,value
"Nc1ccn([C@@H]2O[C@H](CO)[C@@H](O)C2(F)F)c(=O)n1 [^3H-gemcitabine, gemcitabine]",uptake into oocytes expressing ENT1 versus noninjected controls,higher levels
